# Experiment: Stability of the resulting drug solutions (paclitaxel in nanoparticles of polymeric micelles)
# Assay type: physicochemical
# Protocol: The polymer (5 mg) was dissolved in 5 ml of the diluting fluid followed by the addition of the anionic surfactant sodium deoxycholate (5 mg) to obtain a clear solution. Paclitaxel solution in absolute alcohol (20 mg/ml) was then added to the solution of polymer and the surfactant to obtain drug concentrations of 0.1, 0.15 and 0.2 mg/ml. Different diluting fluids were tried and the stability of the resulting drug solutions are tabulated below:
# The polymer (5 mg) was dissolved in 5 ml of the diluting fluid followed by the addition of the anionic surfactant sodium deoxycholate (5 mg) to obtain a clear solution. Paclitaxel solution in absolute alcohol (20 mg/ml) was then added to the solution of polymer and the surfactant to get drug concentrations of 0.2, 0.25 and 0.3 mg/ml. The stability of the resulting drug solutions are tabulated below:
# The polymer (5 mg) was dissolved in 5 ml of the diluting fluid followed by the addition of the anionic surfactant sodium deoxycholate (5 mg) to obtain a clear solution. Paclitaxel solution in absolute alcohol (20 mg/ml) was then added to the solution of polymer and the surfactant to obtain drug concentrations of 0.2 mg/ml. Different diluting fluids were tried and the stability of the resulting drug solutions are tabulated below:
# The polymer (5 mg) was dissolved in 5 ml of the diluting fluid followed by the addition of the anionic surfactant sodium deoxycholate (5 mg) to obtain a clear solution. pH of the resulting solution was adjusted with sodium citrate. Paclitaxel solution in absolute alcohol (20 mg/ml) was then added to the solution of polymer and the surfactant to obtain drug concentrations of 0.2 mg/ml. Results are tabulated below:
# The requisite amount of polymer was dissolved in 5 ml of the diluting fluid followed by the addition of requisite amount of anionic surfactant sodium deoxycholate to obtain the concentrations shown in the table below. pH of the resulting solution was adjusted to 6.4-6.8 with sodium citrate. Paclitaxel solution in absolute alcohol (20 mg/ml) was then added to the solution of polymer and the surfactant to obtain drug concentrations of 0.2 mg/ml. Results are tabulated below:
# The polymer (0.625 mg) was dissolved in 5 ml of the diluting fluid followed by the addition of the anionic surfactant sodium deoxycholate to obtain a clear solution. pH of the resulting solution was adjusted to 6.4-6.8 with sodium citrate.
# Paclitaxel solution in absolute alcohol (20 mg/ml) was then added to the solution of polymer and the surfactant to obtain drug concentrations of 0.2 mg/ml. Results are tabulated below:
# The requisite amount of the polymer was dissolved in 5 ml of the diluting fluid followed by the addition of requisite amount of the anionic surfactant sodium deoxycholate to obtain the concentrations shown in the table below. pH of the resulting solution was adjusted to 6.4-6.8 with sodium citrate. Paclitaxel solution in absolute alcohol (20 mg/ml) was then added to the solution of polymer and the surfactant to get drug concentrations of 0.2, 0.5, 0.6, 0.7, 0.8, 2.4, 3.2, 4.0, and 10 mg/ml. Results are tabulated below:
# The polymer (1.5 mg) was dissolved in 5 ml of the diluting fluid followed by the addition of the anionic surfactant sodium to obtain concentrations of 0, 0.10, 0.15, 0.20 and 0.25 mg/ml. pH of the resulting solution was adjusted to 6.4-6.8 with sodium citrate. Paclitaxel solution in absolute alcohol (20 mg/ml) was then added to the solution of polymer and the surfactant to obtain drug concentrations of 0.6 mg/ml. Results are tabulated below:
# The required amount of the drug solution (3 ml) is added to the vehicle to obtain a drug concentration of 0.6 mg/ml. The perfusion fluid is stable for more than 12 hrs without any apparent signs of precipitation of drug. Stability is also indicated by the fact that more than 90% of the drug is available in solution form at the end of 24 hrs, when analyzed by HPLC.
compound,measurement,setting,value
"CC(=O)O[C@H]1C(=O)[C@@]2(C)[C@H]([C@H](OC(=O)c3ccccc3)[C@]3(O)C[C@H](OC(=O)[C@H](O)[C@@H](NC(=O)c4ccccc4)c4ccccc4)C(C)=C1C3(C)C)[C@]1(OC(C)=O)CO[C@@H]1C[C@@H]2O [Paclitaxel, paclitaxel]",Stability,"Examples 1-9, row 1: Water for Injection, polymer 1 mg/ml, sodium DOC 1 mg/ml, paclitaxel 0.10 mg/ml, 10% loading",<1 h
same,Stability,"Examples 1-9, row 2: Water for Injection, polymer 1 mg/ml, sodium DOC 1 mg/ml, paclitaxel 0.15 mg/ml, 15% loading",<1 h
same,Stability,"Examples 1-9, row 3: Water for Injection, polymer 1 mg/ml, sodium DOC 1 mg/ml, paclitaxel 0.20 mg/ml, 20% loading",<1 h
same,Stability,"Examples 1-9, row 4: Normal Saline, polymer 1 mg/ml, sodium DOC 1 mg/ml, paclitaxel 0.10 mg/ml, 10% loading",<1 h
same,Stability,"Examples 1-9, row 5: Normal Saline, polymer 1 mg/ml, sodium DOC 1 mg/ml, paclitaxel 0.15 mg/ml, 15% loading",<1 h
same,Stability,"Examples 1-9, row 6: Normal Saline, polymer 1 mg/ml, sodium DOC 1 mg/ml, paclitaxel 0.20 mg/ml, 20% loading",<1 h
same,Stability,"Examples 1-9, row 7: 5% Dextrose, polymer 1 mg/ml, sodium DOC 1 mg/ml, paclitaxel 0.10 mg/ml, 10% loading",>8 h
same,Stability,"Examples 1-9, row 8: 5% Dextrose, polymer 1 mg/ml, sodium DOC 1 mg/ml, paclitaxel 0.15 mg/ml, 15% loading",>6 h
same,Stability,"Examples 1-9, row 9: 5% Dextrose, polymer 1 mg/ml, sodium DOC 1 mg/ml, paclitaxel 0.20 mg/ml, 20% loading",>4 h
same,Stability,"Examples 10-12, row 1: 5% Dextrose, polymer 1 mg/ml, sodium DOC 1 mg/ml, paclitaxel 0.20 mg/ml, 20% loading",>4 h
same,Stability,"Examples 10-12, row 2: 5% Dextrose, polymer 1 mg/ml, sodium DOC 1 mg/ml, paclitaxel 0.25 mg/ml, 25% loading",<4 h
same,Stability,"Examples 10-12, row 3: 5% Dextrose, polymer 1 mg/ml, sodium DOC 1 mg/ml, paclitaxel 0.30 mg/ml, 30% loading",<4 h
same,Stability,"Examples 13-14, row 1: 5% Dextrose (pH 5.1), polymer 1 mg/ml, sodium DOC 1 mg/ml, paclitaxel 0.20 mg/ml, 20% loading",>4 h
same,Stability,"Examples 13-14, row 2: 10% Dextrose (pH 5.1), polymer 1 mg/ml, sodium DOC 1 mg/ml, paclitaxel 0.20 mg/ml, 20% loading",>6 h
same,Stability,"Examples 15-17, row 1: 10% Dextrose (pH 3.9), polymer 1 mg/ml, sodium DOC 1 mg/ml, sodium citrate 0.00 mg/ml, pH 6.28, paclitaxel 0.20 mg/ml",<1 h
same,Stability,"Examples 15-17, row 2: 10% Dextrose (pH 3.9), polymer 1 mg/ml, sodium DOC 1 mg/ml, sodium citrate 0.06 mg/ml, pH 6.36, paclitaxel 0.20 mg/ml",>6 h
same,Stability,"Examples 15-17, row 3: 10% Dextrose (pH 3.9), polymer 1 mg/ml, sodium DOC 1 mg/ml, sodium citrate 0.12 mg/ml, pH 6.53, paclitaxel 0.20 mg/ml",>4 h
same,Stability,"Examples 19-23, row 1: 10% Dextrose, polymer 1 mg/ml, sodium DOC 1 mg/ml, pH 6.45, paclitaxel 0.20 mg/ml",>6 h
same,Stability,"Examples 19-23, row 2: 10% Dextrose, polymer 0.5 mg/ml, sodium DOC 0.5 mg/ml, pH 6.44, paclitaxel 0.20 mg/ml",>6 h
same,Stability,"Examples 19-23, row 3: 10% Dextrose, polymer 0.25 mg/ml, sodium DOC 0.25 mg/ml, pH 6.46, paclitaxel 0.20 mg/ml",>6 h
same,Stability,"Examples 19-23, row 4: 10% Dextrose, polymer 0.125 mg/ml, sodium DOC 0.125 mg/ml, pH 6.47, paclitaxel 0.20 mg/ml",>6 h
same,Stability,"Examples 19-23, row 5: 10% Dextrose, polymer 0.0625 mg/ml, sodium DOC 0.0625 mg/ml, pH 6.44, paclitaxel 0.20 mg/ml",<6 h
same,Stability,"Examples 24-27, row 1: 10% Dextrose, polymer 0.125 mg/ml, sodium DOC 0.03125 mg/ml, pH 6.4-6.8, paclitaxel 0.20 mg/ml",<1 h
same,Stability,"Examples 24-27, row 2: 10% Dextrose, polymer 0.125 mg/ml, sodium DOC 0.0625 mg/ml, pH 6.4-6.8, paclitaxel 0.20 mg/ml",<2 h
same,Stability,"Examples 24-27, row 3: 10% Dextrose, polymer 0.125 mg/ml, sodium DOC 0.09375 mg/ml, pH 6.4-6.8, paclitaxel 0.20 mg/ml",>6 h
same,Stability,"Examples 24-27, row 4: 10% Dextrose, polymer 0.125 mg/ml, sodium DOC 0.125 mg/ml, pH 6.4-6.8, paclitaxel 0.20 mg/ml",>6 h
same,Stability,"Examples 28-35: 10% Dextrose, polymer 0.125 mg/ml, sodium DOC 0.125 mg/ml, pH 6.4-6.8, paclitaxel 0.20 mg/ml",>6 h
same,Stability,"Examples 28-35: 10% Dextrose, polymer 0.125 mg/ml, sodium DOC 0.125 mg/ml, pH 6.4-6.8, paclitaxel 0.50 mg/ml",<4 h
same,Stability,"Examples 28-35: 10% Dextrose, polymer 0.125 mg/ml, sodium DOC 0.125 mg/ml, pH 6.4-6.8, paclitaxel 0.80 mg/ml",<2 h
same,Stability,"Examples 28-35: 10% Dextrose, polymer 0.125 mg/ml, sodium DOC 0.125 mg/ml, pH 6.4-6.8, paclitaxel 2.4 mg/ml",<1 h
same,Stability,"Examples 28-35: 10% Dextrose, polymer 0.125 mg/ml, sodium DOC 0.125 mg/ml, pH 6.4-6.8, paclitaxel 3.2 mg/ml",<0.5 h
same,Stability,"Examples 28-35: 10% Dextrose, polymer 0.125 mg/ml, sodium DOC 0.125 mg/ml, pH 6.4-6.8, paclitaxel 4.0 mg/ml",<0.25 h
same,Stability,"Examples 28-35: 10% Dextrose, polymer 0.125 mg/ml, sodium DOC 0.125 mg/ml, pH 6.4-6.8, paclitaxel 10.0 mg/ml",<0.083 h
same,Stability,"Examples 28-35: 10% Dextrose, polymer 0.2 mg/ml, sodium DOC 0.2 mg/ml, pH 6.4-6.8, paclitaxel 0.80 mg/ml",<3 h
same,Stability,"Examples 28-35: 10% Dextrose, polymer 0.3 mg/ml, sodium DOC 0.3 mg/ml, pH 6.4-6.8, paclitaxel 0.50 mg/ml",>6 h
same,Stability,"Examples 28-35: 10% Dextrose, polymer 0.3 mg/ml, sodium DOC 0.3 mg/ml, pH 6.4-6.8, paclitaxel 0.60 mg/ml",<6 h
same,Stability,"Examples 28-35: 10% Dextrose, polymer 0.3 mg/ml, sodium DOC 0.3 mg/ml, pH 6.4-6.8, paclitaxel 0.70 mg/ml",<4 h
same,Stability,"Examples 28-35: 10% Dextrose, polymer 0.3 mg/ml, sodium DOC 0.3 mg/ml, pH 6.4-6.8, paclitaxel 0.80 mg/ml",<2 h
same,Stability,"Examples 36-40, row 1: 10% Dextrose, polymer 0.3 mg/ml, sodium DOC 0 mg/ml, pH 6.4-6.8, paclitaxel 0.60 mg/ml",<0.5 h
same,Stability,"Examples 36-40, row 2: 10% Dextrose, polymer 0.3 mg/ml, sodium DOC 0.10 mg/ml, pH 6.4-6.8, paclitaxel 0.60 mg/ml",<1 h
same,Stability,"Examples 36-40, row 3: 10% Dextrose, polymer 0.3 mg/ml, sodium DOC 0.15 mg/ml, pH 6.4-6.8, paclitaxel 0.60 mg/ml",<4 h
same,Stability,"Examples 36-40, row 4: 10% Dextrose, polymer 0.3 mg/ml, sodium DOC 0.2 mg/ml, pH 6.4-6.8, paclitaxel 0.60 mg/ml",>8 h
same,Stability,"Examples 36-40, row 5: 10% Dextrose, polymer 0.3 mg/ml, sodium DOC 0.25 mg/ml, pH 6.4-6.8, paclitaxel 0.60 mg/ml",>8 h

# Reference: US6365191B1, “Formulations of paclitaxel, its derivatives or its analogs entrapped into nanoparticles of polymeric micelles, process for preparing same and the use thereof” (Dabur Research Foundation, priority 1999, dated 2002)
